In ChEMBL document CHEMBL4152382, “Discovery of Tarantula Venom-Derived NaV1.7-Inhibitory JzTx-V Peptide 5-Br-Trp24 Analogue AM-6120 with Systemic Block of Histamine-Induced Pruritis” (J Med Chem, 2018):

Each molecule was assayed against Sodium channel protein type 9 subunit alpha (Homo sapiens, UniProt Q15858) (assay: Inhibition of human Nav1.7 expressed in HEK293 cells at holding potential of -125 mV […] by patchxpress-based electrophysiology assay).
Assay type: cell-based

Sequence of Sodium channel protein type 9 subunit alpha (Q15858 whole entry): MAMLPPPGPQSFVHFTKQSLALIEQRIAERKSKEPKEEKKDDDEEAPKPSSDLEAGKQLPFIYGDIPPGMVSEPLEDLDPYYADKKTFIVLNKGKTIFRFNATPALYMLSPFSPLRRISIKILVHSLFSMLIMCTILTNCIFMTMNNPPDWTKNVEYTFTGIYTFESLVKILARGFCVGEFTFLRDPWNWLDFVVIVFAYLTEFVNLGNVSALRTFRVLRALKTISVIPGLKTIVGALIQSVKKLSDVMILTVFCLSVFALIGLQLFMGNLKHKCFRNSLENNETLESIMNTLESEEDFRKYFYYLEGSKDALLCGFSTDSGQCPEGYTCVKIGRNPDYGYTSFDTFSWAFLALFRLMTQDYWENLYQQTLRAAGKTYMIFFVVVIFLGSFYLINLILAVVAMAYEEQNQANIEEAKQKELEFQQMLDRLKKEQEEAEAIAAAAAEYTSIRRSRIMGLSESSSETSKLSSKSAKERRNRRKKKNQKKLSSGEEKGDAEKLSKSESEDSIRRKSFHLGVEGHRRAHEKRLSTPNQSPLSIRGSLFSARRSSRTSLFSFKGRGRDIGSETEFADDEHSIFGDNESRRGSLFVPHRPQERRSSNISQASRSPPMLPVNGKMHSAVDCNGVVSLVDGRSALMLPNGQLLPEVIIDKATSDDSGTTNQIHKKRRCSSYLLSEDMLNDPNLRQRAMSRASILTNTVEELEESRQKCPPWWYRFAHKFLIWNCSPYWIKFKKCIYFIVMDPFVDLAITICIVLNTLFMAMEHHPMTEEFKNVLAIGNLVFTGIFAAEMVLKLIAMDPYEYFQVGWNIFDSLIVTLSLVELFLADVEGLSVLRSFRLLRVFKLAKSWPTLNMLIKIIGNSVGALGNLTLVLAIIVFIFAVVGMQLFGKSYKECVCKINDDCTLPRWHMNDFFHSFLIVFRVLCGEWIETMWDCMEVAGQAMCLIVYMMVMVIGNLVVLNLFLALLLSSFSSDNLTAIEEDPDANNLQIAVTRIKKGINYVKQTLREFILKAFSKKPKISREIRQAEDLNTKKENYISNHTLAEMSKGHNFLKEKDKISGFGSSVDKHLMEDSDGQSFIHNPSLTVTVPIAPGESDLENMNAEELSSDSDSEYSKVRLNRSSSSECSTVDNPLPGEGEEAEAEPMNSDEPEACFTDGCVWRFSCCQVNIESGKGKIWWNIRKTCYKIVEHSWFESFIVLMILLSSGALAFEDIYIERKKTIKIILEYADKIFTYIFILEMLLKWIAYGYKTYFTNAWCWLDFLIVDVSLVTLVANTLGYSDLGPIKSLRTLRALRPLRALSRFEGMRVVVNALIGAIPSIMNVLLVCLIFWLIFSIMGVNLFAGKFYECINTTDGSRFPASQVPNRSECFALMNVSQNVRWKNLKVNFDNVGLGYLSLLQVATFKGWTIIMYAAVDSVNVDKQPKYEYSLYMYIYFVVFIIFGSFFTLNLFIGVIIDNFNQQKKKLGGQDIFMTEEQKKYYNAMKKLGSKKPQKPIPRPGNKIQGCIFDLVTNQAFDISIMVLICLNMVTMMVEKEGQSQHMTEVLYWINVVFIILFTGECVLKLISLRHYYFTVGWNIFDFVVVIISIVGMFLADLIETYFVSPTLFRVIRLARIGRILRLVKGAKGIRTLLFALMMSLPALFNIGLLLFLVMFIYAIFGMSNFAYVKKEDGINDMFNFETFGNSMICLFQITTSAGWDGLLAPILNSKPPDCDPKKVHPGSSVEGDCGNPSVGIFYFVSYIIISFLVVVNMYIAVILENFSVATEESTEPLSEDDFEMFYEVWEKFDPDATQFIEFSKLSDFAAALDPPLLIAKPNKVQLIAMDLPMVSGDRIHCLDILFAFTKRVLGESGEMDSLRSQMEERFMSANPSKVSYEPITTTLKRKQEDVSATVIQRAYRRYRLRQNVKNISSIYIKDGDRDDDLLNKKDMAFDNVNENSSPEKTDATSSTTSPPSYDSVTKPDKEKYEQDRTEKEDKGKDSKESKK

SMILES | IC50
C#CC[C@H](NC(=O)[C@@H](N)CCC(=O)O)C(=O)N[C@H]1CSSC[C@@H]2NC(=O)[C@@H]3CSSC[C@@H](C(=O)N[C@@H](CCCNC(=N)N)C(=O)N[C@@H](CCCCN)C(=O)N[C@@H](CCC(=O)O)C(=O)N[C@H](C(N)=O)[C@@H](C)CC)NC(=O)[C@H](Cc4c[nH]c5ccc(Br)cc45)NC(=O)[C@H](CC(C)C)NC(=O)[C@H](CCCCN)NC(=O)[C@H](CSSC[C@H](NC(=O)[C@H]([C@@H](C)O)NC(=O)[C@H](Cc4c[nH]c5ccccc45)NC(=O)[C@H](CCCC)NC(=O)[C@H](Cc4c[nH]c5ccccc45)NC(=O)[C@H](CCCCN)NC(=O)[C@H](CCC(N)=O)NC1=O)C(=O)N[C@@H](CC(=O)O)C(=O)N[C@@H](CO)C(=O)N[C@@H](CCCCN)C(=O)N[C@@H](CCCNC(=N)N)C(=O)N[C@@H](C)C(=O)N3)NC(=O)[C@H](CCCNC(=N)N)NC(=O)[C@H](CC(C)C)NC(=O)CNC(=O)[C@H](CCC(=O)O)NC2=O | 0.3 nM
C#CC[C@H](N)C(=O)N[C@@H](Cc1ccc(O)cc1)C(=O)N[C@H]1CSSC[C@@H]2NC(=O)[C@@H]3CSSC[C@@H](C(=O)N[C@@H](CCCNC(=N)N)C(=O)N[C@@H](CCCCN)C(=O)N[C@@H](CCC(=O)O)C(=O)N[C@@H](Cc4ccccc4)C(N)=O)NC(=O)[C@H](Cc4c[nH]c5ccc(Br)cc45)NC(=O)[C@H](CC(C)C)NC(=O)[C@H](CCCCN)NC(=O)[C@H](CSSC[C@H](NC(=O)[C@H]([C@@H](C)O)NC(=O)[C@H](Cc4c[nH]c5ccccc45)NC(=O)[C@H](CCCC)NC(=O)[C@H](Cc4c[nH]c5ccccc45)NC(=O)[C@H](CCCCN)NC(=O)[C@H](CCC(N)=O)NC1=O)C(=O)N[C@@H](CC(=O)O)C(=O)N[C@@H](CO)C(=O)N[C@@H](CCCCN)C(=O)N[C@@H](CCCNC(=N)N)C(=O)N[C@@H](C)C(=O)N3)NC(=O)[C@H](CCCNC(=N)N)NC(=O)[C@H](CC(C)C)NC(=O)CNC(=O)[C@H](CCC(=O)O)NC2=O | 1.1 nM
C#CC[C@H](N)C(=O)N[C@@H](Cc1ccc(O)cc1)C(=O)N[C@H]1CSSC[C@@H]2NC(=O)[C@@H]3CSSC[C@@H](C(=O)N[C@@H](CCCNC(=N)N)C(=O)N[C@@H](CCCCN)C(=O)N[C@@H](CCC(=O)O)C(=O)N[C@H](C(N)=O)[C@@H](C)CC)NC(=O)[C@H](Cc4c[nH]c5ccccc45)NC(=O)[C@H](CC(C)C)NC(=O)[C@H](CCCCN)NC(=O)[C@H](CSSC[C@H](NC(=O)[C@H]([C@@H](C)O)NC(=O)[C@H](Cc4c[nH]c5ccccc45)NC(=O)[C@H](CCCC)NC(=O)[C@H](Cc4c[nH]c5ccc(Br)cc45)NC(=O)[C@H](CCCCN)NC(=O)[C@H](CCC(N)=O)NC1=O)C(=O)N[C@@H](CC(=O)O)C(=O)N[C@@H](CO)C(=O)N[C@@H](CCCCN)C(=O)N[C@@H](CCCNC(=N)N)C(=O)N[C@@H](C)C(=O)N3)NC(=O)[C@H](CCCNC(=N)N)NC(=O)[C@H](CC(C)C)NC(=O)CNC(=O)[C@H](CCC(=O)O)NC2=O | 22 nM
C#CC[C@H](N)C(=O)N[C@@H](Cc1ccc(O)cc1)C(=O)N[C@H]1CSSC[C@@H]2NC(=O)[C@@H]3CSSC[C@@H](C(=O)N[C@@H](CCCNC(=N)N)C(=O)N[C@@H](CCCCN)C(=O)N[C@@H](CCC(=O)O)C(=O)N[C@H](C(N)=O)[C@@H](C)CC)NC(=O)[C@H](Cc4c[nH]c5c(Br)cccc45)NC(=O)[C@H](CC(C)C)NC(=O)[C@H](CCCCN)NC(=O)[C@H](CSSC[C@H](NC(=O)[C@H]([C@@H](C)O)NC(=O)[C@H](Cc4c[nH]c5ccccc45)NC(=O)[C@H](CCCC)NC(=O)[C@H](Cc4c[nH]c5ccccc45)NC(=O)[C@H](CCCCN)NC(=O)[C@H](CCC(N)=O)NC1=O)C(=O)N[C@@H](CC(=O)O)C(=O)N[C@@H](CO)C(=O)N[C@@H](CCCCN)C(=O)N[C@@H](CCCNC(=N)N)C(=O)N[C@@H](C)C(=O)N3)NC(=O)[C@H](CCCNC(=N)N)NC(=O)[C@H](CC(C)C)NC(=O)CNC(=O)[C@H](CCC(=O)O)NC2=O | 24 nM
C#CC[C@H](N)C(=O)N[C@@H](Cc1ccc(O)cc1)C(=O)N[C@H]1CSSC[C@@H]2NC(=O)[C@@H]3CSSC[C@@H](C(=O)N[C@@H](CCCNC(=N)N)C(=O)N[C@@H](CCCCN)C(=O)N[C@@H](CCC(=O)O)C(=O)N[C@@H](CC4CCCCC4)C(N)=O)NC(=O)[C@H](Cc4c[nH]c5ccccc45)NC(=O)[C@H](CC(C)C)NC(=O)[C@H](CCCCN)NC(=O)[C@H](CSSC[C@H](NC(=O)[C@H]([C@@H](C)O)NC(=O)[C@H](Cc4c[nH]c5ccccc45)NC(=O)[C@H](CCCC)NC(=O)[C@H](Cc4c[nH]c5ccccc45)NC(=O)[C@H](CCCCN)NC(=O)[C@H](CCC(N)=O)NC1=O)C(=O)N[C@@H](CC(=O)O)C(=O)N[C@@H](CO)C(=O)N[C@@H](CCCCN)C(=O)N[C@@H](CCCNC(=N)N)C(=O)N[C@@H](C)C(=O)N3)NC(=O)[C@H](CCCNC(=N)N)NC(=O)[C@H](CC(C)C)NC(=O)CNC(=O)[C@H](CCC(=O)O)NC2=O | 0.6 nM
C#CC[C@H](N)C(=O)N[C@@H](Cc1ccc(O)cc1)C(=O)N[C@H]1CSSC[C@@H]2NC(=O)[C@@H]3CSSC[C@@H](C(=O)N[C@@H](CCCNC(=N)N)C(=O)N[C@@H](CCCCN)C(=O)N[C@@H](CCC(=O)O)C(=O)N[C@H](C(N)=O)[C@@H](C)CC)NC(=O)[C@H](CCc4ccccc4)NC(=O)[C@H](CC(C)C)NC(=O)[C@H](CCCCN)NC(=O)[C@H](CSSC[C@H](NC(=O)[C@H]([C@@H](C)O)NC(=O)[C@H](Cc4c[nH]c5ccccc45)NC(=O)[C@H](CCCC)NC(=O)[C@H](Cc4c[nH]c5ccccc45)NC(=O)[C@H](CCCCN)NC(=O)[C@H](CCC(N)=O)NC1=O)C(=O)N[C@@H](CC(=O)O)C(=O)N[C@@H](CO)C(=O)N[C@@H](CCCCN)C(=O)N[C@@H](CCCNC(=N)N)C(=O)N[C@@H](C)C(=O)N3)NC(=O)[C@H](CCCNC(=N)N)NC(=O)[C@H](CC(C)C)NC(=O)CNC(=O)[C@H](CCC(=O)O)NC2=O | > 1000 nM
C#CC[C@H](N)C(=O)N[C@@H](Cc1ccc(O)cc1)C(=O)N[C@H]1CSSC[C@@H]2NC(=O)[C@@H]3CSSC[C@@H](C(=O)N[C@@H](CCCNC(=N)N)C(=O)N[C@@H](CCCCN)C(=O)N[C@@H](CCC(=O)O)C(=O)N[C@H](C(N)=O)[C@@H](C)CC)NC(=O)[C@H](Cc4c[nH]c5ccc(Br)cc45)NC(=O)[C@H](C4CCCCC4)NC(=O)[C@H](CCCCN)NC(=O)[C@H](CSSC[C@H](NC(=O)[C@H]([C@@H](C)O)NC(=O)[C@H](Cc4c[nH]c5ccccc45)NC(=O)[C@H](CCCC)NC(=O)[C@H](Cc4c[nH]c5ccccc45)NC(=O)[C@H](CCCCN)NC(=O)[C@H](CCC(N)=O)NC1=O)C(=O)N[C@@H](CC(=O)O)C(=O)N[C@@H](CO)C(=O)N[C@@H](CCCCN)C(=O)N[C@@H](CCCNC(=N)N)C(=O)N[C@@H](C)C(=O)N3)NC(=O)[C@H](CCCNC(=N)N)NC(=O)[C@H](CC(C)C)NC(=O)CNC(=O)[C@H](CCC(=O)O)NC2=O | 19.6 nM
C#CC[C@H](N)C(=O)N[C@@H](Cc1ccc(O)cc1)C(=O)N[C@H]1CSSC[C@@H]2NC(=O)[C@@H]3CSSC[C@@H](C(=O)N[C@@H](CCCNC(=N)N)C(=O)N[C@@H](CCCCN)C(=O)N[C@@H](CCC(=O)O)C(=O)N[C@H](C(N)=O)[C@@H](C)CC)NC(=O)[C@H](Cc4c[nH]c5ccccc45)NC(=O)[C@H](C4CCCCC4)NC(=O)[C@H](CCCCN)NC(=O)[C@H](CSSC[C@H](NC(=O)[C@H]([C@@H](C)O)NC(=O)[C@H](Cc4c[nH]c5ccccc45)NC(=O)[C@H](CCCC)NC(=O)[C@H](Cc4c[nH]c5ccccc45)NC(=O)[C@H](CCCCN)NC(=O)[C@H](CCC(N)=O)NC1=O)C(=O)N[C@@H](CC(=O)O)C(=O)N[C@@H](CO)C(=O)N[C@@H](CCCCN)C(=O)N[C@@H](CCCNC(=N)N)C(=O)N[C@@H](C)C(=O)N3)NC(=O)[C@H](CCCNC(=N)N)NC(=O)[C@H](CC(C)C)NC(=O)CNC(=O)[C@H](CCC(=O)O)NC2=O | 0.5 nM
C#CC[C@H](N)C(=O)N[C@@H](Cc1ccc(O)cc1)C(=O)N[C@H]1CSSC[C@@H]2NC(=O)[C@@H]3CSSC[C@@H](C(=O)N[C@@H](CCCNC(=N)N)C(=O)N[C@@H](CCCCN)C(=O)N[C@@H](CCC(=O)O)C(=O)N[C@@H](CCc4ccccc4)C(N)=O)NC(=O)[C@H](Cc4c[nH]c5ccc(Br)cc45)NC(=O)[C@H](CC(C)C)NC(=O)[C@H](CCCCN)NC(=O)[C@H](CSSC[C@H](NC(=O)[C@H]([C@@H](C)O)NC(=O)[C@H](Cc4c[nH]c5ccccc45)NC(=O)[C@H](CCCC)NC(=O)[C@H](Cc4c[nH]c5ccccc45)NC(=O)[C@H](CCCCN)NC(=O)[C@H](CCC(N)=O)NC1=O)C(=O)N[C@@H](CC(=O)O)C(=O)N[C@@H](CO)C(=O)N[C@@H](CCCCN)C(=O)N[C@@H](CCCNC(=N)N)C(=O)N[C@@H](C)C(=O)N3)NC(=O)[C@H](CCCNC(=N)N)NC(=O)[C@H](CC(C)C)NC(=O)CNC(=O)[C@H](CCC(=O)O)NC2=O | 1.1 nM
C#CC[C@H](NC(=O)[C@@H](N)CCCCN)C(=O)N[C@H]1CSSC[C@@H]2NC(=O)[C@@H]3CSSC[C@@H](C(=O)N[C@@H](CCCNC(=N)N)C(=O)N[C@@H](CCCCN)C(=O)N[C@@H](CCC(=O)O)C(=O)N[C@H](C(N)=O)[C@@H](C)CC)NC(=O)[C@H](Cc4c[nH]c5ccc(Br)cc45)NC(=O)[C@H](CC(C)C)NC(=O)[C@H](CCCCN)NC(=O)[C@H](CSSC[C@H](NC(=O)[C@H]([C@@H](C)O)NC(=O)[C@H](Cc4c[nH]c5ccccc45)NC(=O)[C@H](CCCC)NC(=O)[C@H](Cc4c[nH]c5ccccc45)NC(=O)[C@H](CCCCN)NC(=O)[C@H](CCC(N)=O)NC1=O)C(=O)N[C@@H](CC(=O)O)C(=O)N[C@@H](CO)C(=O)N[C@@H](CCCCN)C(=O)N[C@@H](CCCNC(=N)N)C(=O)N[C@@H](C)C(=O)N3)NC(=O)[C@H](CCCNC(=N)N)NC(=O)[C@H](CC(C)C)NC(=O)CNC(=O)[C@H](CCC(=O)O)NC2=O | 5.7 nM
C#CC[C@H](N)C(=O)N[C@@H](Cc1ccc(O)cc1)C(=O)N[C@H]1CSSC[C@@H]2NC(=O)[C@@H]3CSSC[C@@H](C(=O)N[C@@H](CCCNC(=N)N)C(=O)N[C@@H](CCCCN)C(=O)N[C@@H](CCC(=O)O)C(=O)N[C@H](C(N)=O)[C@@H](C)CC)NC(=O)[C@H](Cc4c[nH]c5cc(C)ccc45)NC(=O)[C@H](CC(C)C)NC(=O)[C@H](CCCCN)NC(=O)[C@H](CSSC[C@H](NC(=O)[C@H]([C@@H](C)O)NC(=O)[C@H](Cc4c[nH]c5ccccc45)NC(=O)[C@H](CCCC)NC(=O)[C@H](Cc4c[nH]c5ccccc45)NC(=O)[C@H](CCCCN)NC(=O)[C@H](CCC(N)=O)NC1=O)C(=O)N[C@@H](CC(=O)O)C(=O)N[C@@H](CO)C(=O)N[C@@H](CCCCN)C(=O)N[C@@H](CCCNC(=N)N)C(=O)N[C@@H](C)C(=O)N3)NC(=O)[C@H](CCCNC(=N)N)NC(=O)[C@H](CC(C)C)NC(=O)CNC(=O)[C@H](CCC(=O)O)NC2=O | 19 nM
